Assay results: patent publication US10584124B2, “Crystalline forms” (Array BioPharma Inc., priority 2017, dated 2020)

Key:
[1] = Solvent solubility screen of the compound of Formula II; assay type: physicochemical; conditions: 40 °C, thermodynamic from solid, read-out: Approximate solubility
Procedure: A solvent solubility screen was conducted in 32 solvent systems as follows.
Between each addition, the mixture was checked for dissolution. If no dissolution was apparent, the mixture was heated to around 40° C. and checked again. This procedure was continued until dissolution was observed or until 100 volumes of solvent had been added. Undissolved material from the solubility screen was isolated and analyzed by XRPD.

[2] = Dynamic vapor sorption (DVS) of the compound of Formula II; assay type: physicochemical
Procedure: Approximately 10 mg of sample was placed into a mesh vapor sorption balance pan and loaded into a DVS-1 dynamic vapor sorption balance by Surface Measurement Systems. The sample was subjected to a ramping profile from 40-90% relative humidity (RH) at 10% increments, maintaining the sample at each step until a stable weight had been achieved (99.5% step completion). After completion of the sorption cycle, the sample was dried using the same procedure to 0% RH and then a second sorption cycle back to 40% RH. The weight change during the sorption/desorption cycles were plotted, allowing for the hygroscopic nature of the sample to be determined. XRPD analysis was then carried out on any solid retained.
The material appeared highly crystalline by XRPD (FIG. 62A). […] This event was followed by thermal degradation. […] (FIG. 62B).

[3] = Solubility test of the L-malic acid salt at room temperature; assay type: physicochemical; conditions: DMSO, two lots
[4] = Isothermic (25° C.) DVS analysis of salts of the compound of Formula I; assay type: physicochemical
Excerpt: (FIG. 16D). […] Some hysteresis was observed. […] (FIG. 16C). […] (FIG. 16D).
(FIG. 18A). […] (FIG. 18B). […] Some hysteresis was observed. […] An overlay of FTIR spectra of the L- and D-malic acid salts is shown in FIG. 18F. ^1H NMR spectra of the L- and D-malic salts in DMSO-d^6 are shown in FIG. 18G-18H, respectively.

[5] = Second solubility study of the L-malic acid salt at elevated temperatures (60° C., 70° C.); assay type: physicochemical; conditions: for Solids dissolve at 70° C.?: 70° C. for approximately 3.0 hours
[6] = Stability screening of freebase and selected salts of Formula I, 40° C. and 75% RH, weekly HPLC over 4 weeks

COc1ccc(CN2C3CC2CN(c2ccc(-c4cc(OCC(C)(C)O)cn5ncc(C#N)c45)cn2)C3)cn1 [compound of Formula II, 6-(2-hydroxy-2-methylpropoxy)-4-(6-(6-((6-methoxypyridin-3-yl)methyl)-3,6-diazabicyclo[3.1.1]heptan-3-yl)pyridin-3-yl)pyrazolo[1,5-a]pyridine-3-carbonitrile]
17000 µg/mL: solubility ([1]; NMP, organic solvent or mixture)
< 5000 µg/mL: solubility ([1]; 1-Butanol, organic solvent or mixture) | solubility ([1]; 1-Propanol, organic solvent or mixture) | solubility ([1]; organic solvent or mixture, 1,4-Dioxane, (P) partial solubility at 100 volumes) | solubility ([1]; organic solvent or mixture, 2-Ethoxyethanol, (P) partial solubility at 100 volumes) | solubility ([1]; organic solvent or mixture, 2-Methyl THF, (P) partial solubility at 100 volumes) | solubility ([1]; organic solvent or mixture, Anisole, (P) partial solubility at 100 volumes) | solubility ([1]; organic solvent or mixture, CHCl3, (P) partial solubility at 100 volumes) | solubility ([1]; organic solvent or mixture, Cyclohexanone, (P) partial solubility at 100 volumes) | solubility ([1]; organic solvent or mixture, DCM, (P) partial solubility at 100 volumes) | solubility ([1]; organic solvent or mixture, Nitromethane, (P) partial solubility at 100 volumes) | solubility ([1]; organic solvent or mixture, THF, (P) partial solubility at 100 volumes) | solubility ([1]; Acetone, organic solvent or mixture) | solubility ([1]; Acetone:Water (50%), aqueous with cosolvent or surfactant or cyclodextrin) | solubility ([1]; Cyclohexane, organic solvent or mixture) | solubility ([1]; EtOAc, organic solvent or mixture) | solubility ([1]; Ethanol, organic solvent or mixture) | solubility ([1]; IPA, organic solvent or mixture) | solubility ([1]; MEK, organic solvent or mixture) | solubility ([1]; MIBK, organic solvent or mixture) | solubility ([1]; MeOAc, organic solvent or mixture) | solubility ([1]; Water, water)
around 3.6%: Weight increase by DVS ([2]; 90% RH)
48000 µg/mL: solubility ([1]; THF:Water (1%), organic solvent or mixture)
No change in Form: Change in Form post-DVS ([2]; XRPD after DVS)
5000 µg/mL: solubility ([1]; MeCN:Water (20%), aqueous with cosolvent or surfactant or cyclodextrin)
41000 µg/mL: solubility ([1]; DMSO, organic solvent or mixture)
moderately hygroscopic: Hygroscopicity by DVS (in words) [2]

COc1ccc(CN2CCN(c3ccc(-c4cc(-c5cnn(C)c5)cn5ncc(C#N)c45)cn3)CC2)cn1.O=C(O)C[C@H](O)C(=O)O [L-malic acid salt]
no observable deliquescence: Deliquescence upon removal from the DVS chamber ([4]; sample remained a free-flowing powder)
97.4%: Stability, HPLC analysis, T = 2 weeks ([6]; stored at 40° C. and 75% RH, 2 weeks) | Stability, HPLC analysis, T = 3 weeks ([6]; stored at 40° C. and 75% RH, 3 weeks)
97.8%: Stability, HPLC analysis, T = 0 ([6]; stored at 40° C. and 75% RH, T = 0)
Yes (>36 mg/mL): Solids dissolve at 60° C.? ([5]; 60° C. for 3.0 hours, solvent DMSO, Yes)
Yes (>13.4 mg/mL): Solids dissolve at 60° C.? ([5]; 60° C. for 3.0 hours, solvent 0.1M HCl, Yes)
Yes (>56 mg/mL): Solids dissolve at 70° C.? ([5]; solvent DMSO, Yes)
No: Solids dissolve at 60° C.? ([5]; 60° C. for 3.0 hours, solvent 2-methyl THF) | Solids dissolve at 60° C.? ([5]; 60° C. for 3.0 hours, solvent ACN) | Solids dissolve at 60° C.? ([5]; 60° C. for 3.0 hours, solvent Acetone) | Solids dissolve at 60° C.? ([5]; 60° C. for 3.0 hours, solvent DCE) | Solids dissolve at 60° C.? ([5]; 60° C. for 3.0 hours, solvent EtOAc) | Solids dissolve at 60° C.? ([5]; 60° C. for 3.0 hours, solvent EtOH) | Solids dissolve at 60° C.? ([5]; 60° C. for 3.0 hours, solvent IPA) | Solids dissolve at 60° C.? ([5]; 60° C. for 3.0 hours, solvent MEK) | Solids dissolve at 60° C.? ([5]; 60° C. for 3.0 hours, solvent MTBE) | Solids dissolve at 60° C.? ([5]; 60° C. for 3.0 hours, solvent MeOH) | Solids dissolve at 60° C.? ([5]; 60° C. for 3.0 hours, solvent Toluene) | Solids dissolve at 60° C.? ([5]; 60° C. for 3.0 hours, solvent iPAc) | Solids dissolve at 60° C.? ([5]; 60° C. for 3.0 hours, solvent water) | Solids dissolve at 70° C.? ([5]; solvent 2-methyl THF) | Solids dissolve at 70° C.? ([5]; solvent ACN) | Solids dissolve at 70° C.? ([5]; solvent DCE) | Solids dissolve at 70° C.? ([5]; solvent EtOAc) | Solids dissolve at 70° C.? ([5]; solvent EtOH) | Solids dissolve at 70° C.? ([5]; solvent IPA) | Solids dissolve at 70° C.? ([5]; solvent MEK) | Solids dissolve at 70° C.? ([5]; solvent MTBE) | Solids dissolve at 70° C.? ([5]; solvent Toluene) | Solids dissolve at 70° C.? ([5]; solvent iPAc) | Solids dissolve at 70° C.? ([5]; solvent water)
97.3%: Stability, HPLC analysis, T = 4 weeks ([6]; stored at 40° C. and 75% RH, 4 weeks)
approximately 2.8%: Mass gain by DVS ([4]; 80% relative humidity, 25° C.)
~65 °C almost 12.3 mg/mL: Solids dissolve at 60° C.? ([5]; solvent THF, cell says 65° C.)
14000 to 15000 µg/mL: solubility [3]
hygroscopic: Hygroscopicity by DVS (in words) ([4]; isothermic 25° C.)
0.5%: Absolute % change ([6]; 40° C. and 75% RH, T = 0 to 4 weeks)
97.7%: Stability, HPLC analysis, T = 1 week ([6]; stored at 40° C. and 75% RH, 1 week)
